For experiment [1], the target named is T1, human LHRH receptor (Homo sapiens, UniProt P30968).
T1 sequence (P30968 1-328): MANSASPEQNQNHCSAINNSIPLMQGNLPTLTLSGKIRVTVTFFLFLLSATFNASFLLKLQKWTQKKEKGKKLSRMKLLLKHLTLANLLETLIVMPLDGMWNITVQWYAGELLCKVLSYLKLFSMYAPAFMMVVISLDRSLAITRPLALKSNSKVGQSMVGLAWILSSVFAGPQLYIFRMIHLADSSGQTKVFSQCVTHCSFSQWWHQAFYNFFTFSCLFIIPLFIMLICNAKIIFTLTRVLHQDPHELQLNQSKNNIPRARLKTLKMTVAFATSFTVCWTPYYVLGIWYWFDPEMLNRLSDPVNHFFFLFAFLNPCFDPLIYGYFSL
Nature of the experiment: functional assay for antagonistic activity, fos-Luc luciferase reporter gene, stimulation with 1 nM [D-Trp6] LHRH. It counts as cell-based. Details: expressed in transfected cells. The settings on record: cells stimulated with 1 nM [D-Trp6] LHRH for 6 h; bracket = number of independent experiments. As to the method: The assay for the functional characterization of antagonistic analogs of LH-RH was carried out, with some modifications, as described in Beckers et al., “Characterization of gonadotropin-releasing hormone analogs based on a sensitive cellular luciferase reporter gene assay” (1997) Analyt. Biochem. 251, 17-23. The assay uses a reporter gene made by fusing the c-fos immediate-early gene promoter to a DNA sequence encoding luciferase (Luc). A recombinant cell line that expresses the human LH-RH. receptor is stably transfected with the fos-Luc reporter gene. Transcription of the fos-Luc fusion gene and synthesis of the Luc protein is induced in the cells in a dose-dependent manner by LH-RH and other LH-RH agonists that bind and signal through the human LH-RH receptor. Peptide LH-RH antagonists such as the compounds of the invention bind to cellular LH-RH receptors and inhibit this stimulation. The antagonistic potency (IC50) of peptide LH-RH antagonists as determined by the assay generally correlates well with the binding affinity (KD) of the LH-RH antagonists for LH-RH receptor as determined from ligand binding experiments.
Cells containing the fos-Luc reporter gene that express the human LH-RH receptor were cultured for 24 h in microtitre plates using DMEM with additives and 1% (v:v) FCS (10,000 cells per well). The cells were then stimulated with 1 nM [D-Trp^6] LHRH for 6 h. Peptide LH-RH antagonist compounds according to the invention were added before the stimulation, and the cells were lysed at the end for quantification of the cellular Luc activity. The calculation of the IC50 values from dose-effect curves was carried out by non-linear regression analysis using the Hill model (Programme EDX 2.0 from C. Grunwald, Arzneimittelwerk Dresden).
The quantification of the Luc activity was carried out in duplicate essentially as described (Promega Technical Bulletins #101/161) using the respective luciferase assay system (Promega E4030). Owing to addition of coenzyme A (CoA), an oxidation of luciferyl-CoA takes place with advantageous kinetics. After the removal of the culture medium from the microtitre plate, the cells were lysed by addition of 100 μl of lysis buffer (25 mM tris-phosphate pH 7.8, 2 mM dithiothreitol, 2 mM 1,2-diaminocyclohexane-N,N,N′,N′-tetraacetic acid (CDTA), 10% (v:v) glycerol, 1% (v:v) Triton X-100). After incubation at room temperature for 15 min, 10 μl of cell lysate were transferred into a white microtitre plate suitable for luminometric detection (Dynatech). The enzymatic reaction was initiated by addition of 50 μl of assay buffer (20 mM tricine pH 7.8, 1.07 mM (MgCO3)4Mg(OH)2, 2.67 mM MgSO4, 0.1 mM ethylene-diaminetetraacetic acid (EDTA), 33.3 mM dithiothreitol, 270 μM coenzyme A, 470 μM glow-worm (Photinus pyralis) luciferin, 530 μM rATPNa2). After one minute, the luminescence was determined for a total time of one second with a signal half-life of five minutes using the EG&G Berthold MicroLumat LB 96 P.
On the technique in general: A reporter such as luciferase makes a cellular process visible.

Experiment [2] has as its system patients who suffer from prostate carcinoma. Briefly: first clinical trial in prostate carcinoma, 14 patients, testosterone and PSA. It counts as in vivo, human. Here is the method:
(§1) The following data are derived from two clinical studies comprising 14 and 13 patients, respectively, who suffer from prostate carcinoma and who were treated with the compound of the invention having the formula: Ac-D-Nal(2)^1-D-Cpa^2-D-Pal(3)^3-Ser^4-N-Me-Tyr^5-D-Hci^6-Nle^7-Arg^8-Pro^9-D-Ala^10-NH2 (Ozarelix)
In the first clinical trial, patients were given i.m. injections of 65 mg Ozarelix on day 1 followed by another 65 mg i.m. injection on day 2. Patients were re-treated after a waiting period of 4 weeks. This 4 week period of treatment is referred to as a treatment “cycle”. Accordingly, dosage of 130 mg of Ozarelix was provided to the patients in the first four week cycle of treatment (Cycle 1).
Six out of these 14 patients were subsequently administered 65 mg Ozarelix per i.m. injection on day 29 and day 30 each, whereas the other eight patients only received 65 mg Ozarelix on day 29 (Cycle 2). This schedule was repeated on day 57/58 accordingly (Cycle 3).
As for the administration days, testosterone levels were always determined before application of ozarelix to the patients. In addition, mean change of Prostate Specific Antigen (PSA) levels were monitored 4-weekly over a period of 12 weeks. The percent change of PSA shown is the mean value for all treated patients and refers to the normalized individual baseline PSA levels before first Ozarelix administration.

The test system is the same in experiment [3]. Nature of the experiment: second clinical trial in prostate carcinoma, 13 patients, testosterone. It counts as in vivo, human. As to the method: as §1
In the second clinical trial patients were given a single im. injection of 130 mg Ozarelix on day 1. Patients were re-treated after a waiting period of 4 weeks, and this 4 week period is considered as a treatment “Cycle”. Accordingly, dosage of 130 mg of Ozarelix was again provided to the patients in the first four week cycle of treatment (Cycle 1).
Seven out of these 13 patients were subsequently administered 130 mg Ozarelix per i.m. injection on day 29, whereas the other six patients received 100 mg Ozarelix on day 29 (Cycle 2). This schedule was repeated on day 57 accordingly (Cycle 3).
As for the administration days, testosterone levels were always determined before application of Ozarelix to the patients.

Experiment [4] concerns the target T1, human LHRH receptor. Nature of the experiment: receptor binding assay, displacement of [125I]-cetrorelix on intact cells. Details: expressed in transfected cells; host or cells: LTK cells (stably transfected), intact cells. The settings on record: LTK cells expressing human LHRH receptor, 1 h at 37° C.; bracket = number of independent experiments; read-out: KD (binding affinity). The text has this: The compounds according to formula I of the invention were investigated for their receptor binding. The assay method closely followed the process described in Beckers et al., “Selection and characterization of mammalian cell lines with stable overexpression of human pituitary receptors for gonadoliberin (GnRH)” (1995) Eur. J. Biochem., 231, 535-543. Cetrorelix obtained according to the synthesis disclosed above was iodinated with [^125I] (Amersham; specific activity 80.5 Bq/fmol) using the IodoGen reagent (Pierce). The reaction mixture was purified by reverse-phase high-performance liquid chromatography with exchanged phases, monoiodinated cetrorelix being obtained without unlabelled peptide. In each case, about 80% of the [^125I]-cetrorelix was capable of specific receptor association.
The receptor binding assay was carried out under physiological conditions as described (Beckers et al., 1995) using intact cells. Subconfluent cultures of stably transfected LTK cells, which express the human LHRH receptor, were separated off by incubation in NaCl/Pi (137 mM NaCl, 2.7 mM KCl, 8.1 mM Na2HPO4, […])/1 mM EDTA and collected by centrifugation. The cell pellet was resuspended in binding buffer (DMEM without H2CO3, with 4.5 g/l of glucose, 10 mM Hepes pH 7.5, 0.5% (mass/volume) BSA, 1 g/l bacitracin, 0.1 g/l SBTI, 0.1% (mass/volume) NaN3). For displacement assays, 0.25×10^6 cells/100 μl were incubated with approximately 225 pM of the [^125I]-cetrorelix (specific activity 5-10×10^5 dpm/pmol) and various concentrations of unlabelled compound according to the invention as competitor. The cell suspension in 100 μl of binding medium was layered in 400 μl assay tubes over 200 μl of 84% by volume silicone oil (Merck Type 550)/16% by volume paraffin oil. […] Cell pellet and supernatants were then analysed by counting the y radiation. The amount of non-specifically bound material was determined at a final concentration of 1 μM with inclusion of unlabelled cetrorelix and was typically ≦10% of the total bound material. […]

The structures appear in SMILES notation. pIC50, pKd: −log10 of the molar value. Numbered stars: 1 amine (or outer) side, 2 acyl side, 3 side chain; on linkers, the order of the positions; unused ones are H or OH. Square brackets hold non-standard residues; d marks the D form. Side chains are listed from the residue outwards. Peptide text beside a SMILES is read from it. * marks the point of attachment. NH(4-amidinophenyl) = N=C(N)c1ccc(N*)cc1; dPhe(4-Cl) = N[C@H](Cc1ccc(Cl)cc1)C(=O)O; d2Nal = N[C@H](Cc1ccc2ccccc2c1)C(=O)O; d(hCit) = NC(=O)NCCCC[C@@H](N)C(=O)O; Lys(iPr) = CC(C)NCCCC[C@H](N)C(=O)O; NMeY = CN[C@@H](Cc1ccc(O)cc1)C(=O)O; d3Pal = N[C@H](Cc1cccnc1)C(=O)O; Suc = O=C(CCC(=O)[*:2])[*:1]; Nle = CCCC[C@H](N)C(=O)O

As to `CCCC[C@H](NC(=O)[C@@H](CCCCNC(N)=O)NC(=O)[C@H](Cc1ccc(O)cc1)N(C)C(=O)[C@H](CO)NC(=O)[C@@H](Cc1cccnc1)NC(=O)[C@@H](Cc1ccc(Cl)cc1)NC(=O)[C@@H](Cc1ccc2ccccc2c1)NC(C)=O)C(=O)N[C@@H](CCCNC(=N)N)C(=O)N1CCC[C@H]1C(=O)N[C@H](C)C(N)=O` [Example 1, Ac-D-Nal(2)^1-D-Cpa^2-D-Pal(3)^3-Ser^4-N-Me-Tyr^5-D-Hci^6-Nle^7-Arg^8-Pro^9-D-Ala^10-NH2] (Ac-[d2Nal][dPhe(4-Cl)][d3Pal]S[NMeY][d(hCit)][Nle]RP[dA]-NH2), the pIC50 (as a rule, −log10 of the IC50, conventionally taken in molar units) against human LHRH receptor [1] was 9.62. The “PSA levels over the monitoring period” value in experiment [2] (12 weeks, first trial) is “significantly reduced”. For the same compound, the “Testosterone (mean)” value was determined as 0.6 ng/mL in experiment [2] (Day 2, 65 mg i.m. on day 1 and 2, re-treated day 29(/30) and 57(/58), pre-dose day 1 4.4 ng/mL); 0.3 ng/mL in experiment [2] (Day 3, first trial, 65 mg i.m. on day 1 and 2); 0.2 ng/mL in experiment [2] (Day 8, first trial); 0.1 ng/mL in experiment [2] (Day 15, first trial); 0.1 ng/mL in experiment [2] (Day 22, first trial); 0.2 ng/mL in experiment [2] (Day 29, before application, first trial). Also, the “Testosterone (mean)” value in experiment [2] (Day 36, first trial) was found to be 0.1 ng/mL; in experiment [2] (Day 43, first trial), 0.1 ng/mL; in experiment [2] (Day 50, first trial), 0.1 ng/mL; in experiment [2] (Day 57, before application, first trial) it was 0.1 ng/mL; in experiment [2] (Day 64, first trial), 0.1 ng/mL; in experiment [2] (Day 71, first trial), 0.1 ng/mL. For the same compound, the “Testosterone (mean)” value in experiment [2] (Day 78, first trial) is given as 0.1 ng/mL; in experiment [2] (Day 85, first trial), 0.3 ng/mL; in experiment [3] (Day 2, single 130 mg i.m. on day 1, re-treated day 29 and 57 (130 or 100 mg), pre-dose day 1 3.9 ng/mL), 0.4 ng/mL; in experiment [3] (Day 3, second trial, 130 mg i.m. on day 1), 0.3 ng/mL; in experiment [3] (Day 8, second trial), 0.1 ng/mL; in experiment [3] (Day 15, second trial) it was 0.1 ng/mL. The “Testosterone (mean)” value in experiment [3] (Day 22, second trial) is on record as 0.1 ng/mL; in experiment [3] (Day 29, before application, second trial), 0.2 ng/mL; in experiment [3] (Day 36, second trial) it was 0.1 ng/mL; in experiment [3] (Day 43, second trial) it was 0.1 ng/mL; in experiment [3] (Day 50, second trial), 0.1 ng/mL; in experiment [3] (Day 57, before application, second trial) it was 0.2 ng/mL. In addition, the “Testosterone (mean)” value is recorded as 0.1 ng/mL in experiment [3] (Day 64, second trial); 0.1 ng/mL in experiment [3] (Day 71, second trial); 0.1 ng/mL in experiment [3] (Day 78, second trial); 0.3 ng/mL in experiment [3] (Day 85, second trial). Also, the “PSA [% change] (mean, versus individual baseline)” value in experiment [2] (Day 29, first trial) is reported as −77 % change; in experiment [2] (Day 57, first trial), −88 % change; in experiment [2] (Day 85, first trial) it was −89 % change. The “testosterone values of all patients” value is given as less than 0.5 ng/mL in experiment [2] (afterwards (after day 3), first trial) and less than 0.5 ng/mL in experiment [3] (afterwards (after day 3), second trial). The “treated patients hormonally castrated (testosterone <0.5 ng/mL)” value in experiment [2] (day 2 (24 hours post-dose), first trial) is recorded as 57%; in experiment [2] (day 3 (48 hours post-dose), first trial) it was 79%; in experiment [3] (day 2 (24 hours post-dose), second trial) it was 69%; in experiment [3] (day 3 (48 hours post-dose), second trial), 100%.

Consider `CC(=O)N[C@H](Cc1ccc2ccccc2c1)C(=O)N[C@H](Cc1ccc(Cl)cc1)C(=O)N[C@H](Cc1cccnc1)C(=O)N[C@@H](CO)C(=O)N(C)[C@@H](Cc1ccc(O)cc1)C(=O)N[C@H](CCCCNC(=O)CCC(=O)Nc1ccc(C(=N)N)cc1)C(=O)N[C@@H](CC(C)C)C(=O)N[C@@H](CCCCNC(C)C)C(=O)N1CCC[C@H]1C(=O)N[C@H](C)C(N)=O` [Example 2, Ac-D-Nal(2)^1-D-Cpa^2-D-Pal(3)^3-Ser^4-N-Me-Tyr^5-D-Lys(B)^6-Leu^7-Lys(iPr)^8-Pro^9-D-Ala^10-NH2] (Ac-[d2Nal][dPhe(4-Cl)][d3Pal]S[NMeY][dK]([Suc-NH(4-amidinophenyl)])L[Lys(iPr)]P[dA]-NH2), for which, at human LHRH receptor [1], the negative logarithm of the IC50 (pIC50) is 9.16. Besides, the pKd (as a rule, the Kd on a negative log10 scale, so that one unit is a factor of ten) on human LHRH receptor [4] was 9.74.

The values are drawn from US7732412B2, “Methods of treatment using novel LHRH antagonists having improved solubility properties” (Zentaris GmbH, priority 1999, dated 2010).
